Data as given in paper PMC3365043, “Receptor-Targeting Phthalocyanine Photosensitizer for Improving Antitumor Photocytotoxicity” (PLoS ONE, 2012).
pIC50: −log10 of the molar value. Like-named read-outs stand apart in the source and are kept apart here.

Tests used:
S180 tumor-bearing mice = conditions: cited from earlier work
Excerpt: We previously described a peptide-conjugated photosensitizer (ZnPc-(Lys)5), zinc phthalocyanine (ZnPc) conjugated with pentalysine peptidyl moiety, and reported its in vitro and in vivo efficacy. The pentalysine peptide renders water solubility of ZnPc that is otherwise not soluble in physiological condition and requires specialized formulation with, e.g., Cremophor EL. […] Herein we report the synthesis and the physicochemical characterization of this ZnPc-GnRH conjugate, along with the evaluation of its photodynamic activity at cellular level. […] This work p ...

[1] = in DMSO, cited from earlier work
Excerpt: Table 1 Photophysical parameters of ZnPc-GnRH conjugate in DMSO compared to that of ZnPc in DMSO. | column: τs (ns)

[2] = in DMSO; ref 20; cited from earlier work
Excerpt: Table 1 Photophysical parameters of ZnPc-GnRH conjugate in DMSO compared to that of ZnPc in DMSO. | column: Фf

HELF [3] = system: HELF
Description: (§1) The cell lines we used in the current study were human breast cancer cell lines (MDA-MB-231 and MCF-7), human hepatoblastoma cell line (HepG2) and human embryo lung fibroblasts (HELF). All these cell lines were purchased from American Type Culture Collection (ATCC, Manassas, VA, USA).
(§2) MDA-MB-231 and MCF-7 cells were maintained routinely in Dulbecco’s modified Eagle’s medium (DMEM) supplemented with 10% fetal calf serum (FCS) and antibiotics. HepG2 and HELF cells were grown in RPMI-1640 supplemented with 10% FCS and antibiotics. All cells were kept at 37°C in a humidified incubator with 5% CO2 atmosphere. The viability of cells was determined by Trypan blue dye exclusion. Cells were maintained in logarithmic phase with viability >95%.
(§3) Cells at a density of 2.5×10^5 per ml in a volume of 200 µl per well were placed in 96-multiwell black opaque plates and incubated overnight at 37°C under 5% CO2. […] The plates were illuminated at a light dosage of 1.5 J cm^−2 using a 670 nm SAS-DL3 medical laser (Beijing Shou’anshan Electronic Technology Co. Ltd. Beijing, China) and then returned to incubator; dark toxicity was measured in parallel. After 24 hr incubation, cell viability was measured on a microplate reader (Synergy 4, BioTek Instruments) using the AlamarBlue® fluorometric cell viability assay (BioSource International Inc., Camarillo, CA, USA) with λex 530 nm and λem 585 nm. […]

[4] = Fluorescence quantum yield, comparative method with ZnPc as standard; format: physicochemical; conditions: in DMSO, ZnPc standard (Фf 0.2)
Description: Fluorescence quantum yield (Фf) of ZnPc-GnRH conjugate was measured by a comparative method using ZnPc as a standard (Фf (ZnPc) in DMSO = 0.2) using the Eq. (1) [drawing 1] (1) where Фf and Ф0 are fluorescence quantum yields of the conjugate and standard, respectively. Au and A0 are absorbances of the conjugate and standard, respectively. Fu and F0 are areas under the emission curves of the conjugate and standard, respectively. nu and n0 are refractive indices of the solvents used for the conjugate and standard, respectively. The fluorescence of the conjugate and standard were measured on a Cary Eclipse Fluorescence spectrophotometer (Varian, Inc., Walnut Creek, CA).

[5] = Singlet oxygen quantum yield determination (DPBF decay); format: physicochemical; conditions: in DMSO; 0.5 µM; DPBF decay at 417 nm; 670 nm laser at 80 mW cm−2; ZnPc reference (0.67); error less than 10%
Description: The PDT effect of ZnPc type photosensitizer is usually mediated by type II mechanism involving singlet oxygen (^1O2) as major cytotoxic agent. The quantum yield of ^1O2 generation by ZnPc-GnRH was determined by comparing with the un-substituted zinc phthalocyanine (ZnPc) as reference, which has a quantum yield of 0.67 in DMSO [21]. Briefly, a 2 ml DMSO solution of the mixture of the ZnPc-GnRH conjugate (0.5 µM) and 1,3-diphenylisobenzofuran (DPBF, a scavenger molecule for ^1O2), was introduced to the spectrophotometric cell of 1 cm path length and illuminated with a laser light (670 nm at 80 mW cm^−2) in the presence of air (without degassing). The DPBF decay at 417 nm was monitored every 5 s. The concentration of DPBF was kept lower than 3×10^−5 M during the experiment to avoid chain reactions induced by DPBF in the presence of ^1O2. The quantum yield measurement has an error of less than 10%.

MCF-7 [6] = test: Phototoxicity and dark toxicity, AlamarBlue cell viability; conditions: read-out: Phototoxicity IC50 (50% growth inhibition), 12 hr incubation, 670 nm laser, 1.5 J cm−2, viability after 24 hr
Description: as §1, §2, §3

[7] = Fluorescence decay time by time-correlated single photon counting; format: physicochemical; conditions: in DMSO, 300 K, fitted decay curve
Description: Fluorescence decay time (τs) of ZnPc-GnRH conjugate was measured by time-correlated single photon counting experiment of fluorescence excited with a 1.2 ns pulse laser diode at 460 nm, performed on an Edinburgh Instruments FLS920 spectrofluorometer (Livingston, UK) at 300 K. Fluorescence lifetimes were estimated by fitting the decay data using an interactive deconvolution procedure based on Marquardt algorithm with software supplied by OriginLab.

MCF-7 [8] = system: MCF-7
Description: as §1, §2, §3

HepG2 [9] = system: HepG2
Description: as §1, §2, §3

MDA-MB-231 [10] = system: MDA-MB-231
Description: as §1, §2, §3

MDA-MB-231 [11] = test: Phototoxicity and dark toxicity, AlamarBlue cell viability; conditions: read-out: Phototoxicity IC50 (50% growth inhibition), 12 hr incubation, 670 nm laser, 1.5 J cm−2, viability after 24 hr
Description: as §1, §2, §3

MDA-MB-231 [12] = test: Cellular uptake (fluorescence of cell lysate); conditions: 10^−7 to 10^−4.5 M, 12 hr, 37°C, 1% DMSO (ZnPc-GnRH) or 0.2% Cremophor EL (ZnPc-COOH), mean of four experiments
Description: (§4) Aliquots of cells (2.5×10^5 per ml growth medium) were placed in 96-multiwell black opaque plates (Costa) and incubated overnight at 37°C under 5% CO2. Various concentrations (10^−7, 10^−6.5, 10^−6, 10^−5.5, 10^−5 and 10^−4.5 M) of ZnPc-GnRH conjugate (in 1% DMSO) or ZnPc-COOH (in an additional 0.2% Cremophor EL) were added and incubated with cells at 37°C. After 12 hr incubation, the exponentially growing cells were washed with sterile PBS before lysis with NaOH (0.1 N, 0.2 ml with 1% SDS) to give a homogenous solution. The fluorescence of the cell extract was measured on a microplate reader (Synergy 4, BioTek Instruments) with λex = 610 nm and λem = 690 nm. The concentration of cellular protein was determined with a BCA Protein Assay Kit (BioTeke Corporation, Beijing, China). Standard curves were made with cell lysates treated as above with known added amounts of bovine serum albumin. Results are expressed as nmol photosensitizer per mg cell protein.

HELF [13] = test: Cellular uptake (fluorescence of cell lysate); format: cell-based, human; conditions: 10^−7 to 10^−4.5 M, 12 hr, 37°C, 0.2% Cremophor EL (ZnPc-COOH), mean of four experiments
Description: as §4

MCF-7 [14] = test: Cellular uptake (fluorescence of cell lysate); conditions: 10^−7 to 10^−4.5 M, 12 hr, 37°C, 1% DMSO (ZnPc-GnRH) or 0.2% Cremophor EL (ZnPc-COOH), lysate fluorescence λex 610/λem 690 nm, mean of four experiments
Description: as §4

HepG2 [15] = test: Cellular uptake (fluorescence of cell lysate); format: cell-based, human; conditions: 10^−7 to 10^−4.5 M, 12 hr, 37°C, 0.2% Cremophor EL (ZnPc-COOH), mean of four experiments
Description: as §4

Description for MCF-7 cells: 200 µl of MCF-7 cells (at a density of 2.5×10^5 per ml) were seeded in each well of 96-multiwell black opaque plates and incubated overnight at 37°C under 5% CO2. After treated with or without Cetrorelix (at a concentration of 7.5×10^−7 M), a GnRH antagonist, for 12 hr at 37°C, MCF-7 cells were washed twice with sterile PBS before fresh medium was added. These exponentially growing MCF-7 cells were then allowed to incubate with ZnPc-GnRH conjugate (at a concentration of 5×10^−6 M) for various time periods (5, 10, 20, 40, 80, 120 and 180 min) before the cellular uptakes were measured at different incubation time points as described above to determine the cellular uptake curves.

Molecule: [Zn+2].c1ccc2c(c1)-c1nc-2nc2[n-]c(nc3nc([n-]c4nc(n1)-c1ccccc1-4)-c1ccccc1-3)c1ccccc21 [ZnPc, Zinc phthalocyanine]
- Distribution in murine brain (S180 tumor-bearing mice; murine brain): very low level of distribution
- Fluorescence decay time (τs) ([1]; ref 23): 1.22 ns
- Fluorescence decay time (τs) ([1]; ref 24): 3.6 ns
- Fluorescence quantum yield (Фf) [2]: 0.20 [20]

Molecule: CC(C)C[C@H](NC(=O)CNC(=O)[C@H](Cc1ccc(O)cc1)NC(=O)[C@H](CO)NC(=O)[C@H](Cc1c[nH]c2ccccc12)NC(=O)[C@H](Cc1c[nH]cn1)NC(=O)[C@H](CCC(=O)O)NC(=O)c1ccc2c3nc4nc(nc5[nH]c(nc6nc(nc([nH]3)c2c1)-c1ccccc1-6)c1ccccc51)-c1ccccc1-4)C(=O)N[C@@H](CCCNC(=N)N)C(=O)N1CCC[C@H]1C(=O)NCC(=O)O [ZnPc-GnRH]
- Dark toxicity (HELF [3]): no obvious cellular dark toxicity
- Phototoxicity (HELF [3]; HELF, 10^−7 to 10^−4.5 M, 12 hr incubation, 670 nm, 1.5 J cm−2): no significant phototoxicity
- Fluorescence quantum yield (Фf) [4]: 0.17
- Singlet oxygen quantum yield (ФΔ) [5]: 0.73
- pIC50 (MCF-7 [6]): 5.74
- Fluorescence decay time (τs) [7]: 2.7 ns
- Dark toxicity (MCF-7 [8]): no obvious cellular dark toxicity
- Dark toxicity (HepG2 [9]): no obvious cellular dark toxicity
- Phototoxicity (HepG2 [9]; HepG2, 10^−7 to 10^−4.5 M, 12 hr incubation, 670 nm, 1.5 J cm−2): no significant phototoxicity
- Dark toxicity (MDA-MB-231 [10]): no obvious cellular dark toxicity
- pIC50 (MDA-MB-231 [11]): 5.88
- Time at which cellular uptake reached the maximal level (MCF-7 cells): ~2 h

Molecule: Mono-substituted β-carboxyphthalocyanine zinc [ZnPc-COOH]
- Cellular uptake (MDA-MB-231 [12]): low levels of cellular uptakes
- Cellular uptake (HELF [13]): low levels of cellular uptakes
- Cellular uptake (MCF-7 [14]): low levels of cellular uptakes
- Cellular uptake (HepG2 [15]): low levels of cellular uptakes

Molecule: pentalysine phthalocyanine zinc [ZnPc-(Lys)5]
- Selectivity for tumor over brain tissue (S180 tumor-bearing mice; S180 tumor-bearing mice): 6 fold
- Selectivity for tumor over muscle tissue (S180 tumor-bearing mice; S180 tumor-bearing mice): 2 fold
